From patent publication US8883720B2, “Template-fixed beta-hairpin peptidomimetics with CXCR4 antagonizing activity” (Polyphor AG, priority 2008, dated 2014)
Numbered stars: 1 amine (or outer) side, 2 acyl side, 3 side chain; on linkers, the order of the positions; unused ones are H or OH. Bridge positions count the residues as written; N and C are the ends. Square brackets hold non-standard residues; d marks the D form. Peptide text beside a SMILES is read from it. Abu(3S-NH2) = C[C@H](N)[C@H](N)C(=O)O; Hpla = O=C(O)[C@@H](O)Cc1ccc(O)cc1; X1 = NCC[C@H](O[*:1])C(=O)[*:2]; Lac = C[C@H](O)C(=O)O

Experiments:
[1] = tested on: human red blood cells (hRBC); type: cell-based; details: red cells of human, 1 h
Description: 2.5. Hemolysis The depsipeptides were tested for their hemolytic activity against human red blood cells (hRBC). Fresh hRBC were washed three times with phosphate buffered saline (PBS) and centrifuged for 10 min at 2000×g. Compounds (100 μM) were incubated with 20% hRBC (v/v) for 1 h at 37° C. The final erythrocyte concentration was approximately 0.9×10^9 cells/mL. A value of 0% and 100% cell lyses, respectively, was determined by incubation of hRBC in the presence of PBS alone and 0.1% Triton X-100 in H2O, respectively. The samples were centrifuged, the supernatants were 20-fold diluted in PBS buffer and the optical densities (OD) were measured at 540 nm. The 100% lyses value (OD540H2O) gave an OD540 of approximately 1.3-1.8. Percent hemolysis was calculated as follows: (OD540peptide/OD540H2O)×100%.

[2] = Plasma stability, mouse plasma; type: in vitro ADME; details: 37° C., sampled up to 240 min; for half-life at 10 μM: read-out: Plasmastability mouse pl. T1/2
Description: (§1) The stability of the depsipeptides in human and mouse plasma was determined by applying the following method: 315 μL/deep well of freshly thawed human plasma (Basler Blutspende-dienst) and mouse plasma (Harlan Sera-Lab, UK), respectively, were spiked with 35 μL/well of compound in PBS (100 μM, triplicate) and incubated at 37° C. At t=0, 15, 30, 60, 120 and 240 min aliquots of 50 μL were transferred to filtration plate wells containing 150 μL/well of acetonitrile. Following shaking for 2 min the occurred suspensions were filtrated by vacuum and finally, 100 μL of each filtrate were transferred to a propylene microtiter plate, and analyzed by LC/MS as follows: Column: Waters, XBridge C18, mobile phases: (A) water+0.1% formic acid and (B) acetonitrile/water, 95/5 (v/v)+0.1% formic acid, gradient: 5%-100% (B) in 2 minutes, electrospray ionization, MRM detection (triple quadrupole). The peak areas were determined and triplicate values are averaged. The stability is expressed in percent of the initial value at t=0. (tx/t0×100). By using the TREND function of EXCEL (Microsoft Office 2003) T1/2 were determined.

[3] = Plasma stability, human plasma; type: in vitro ADME; details: 37° C., sampled up to 240 min; for half-life at 10 μM: read-out: Plasmastability human pl. T1/2
Description: as §1

human CXCR4 = molecular target: T1, human CXCR4 (Homo sapiens, UniProt P61073); assay: Ca2+-assay: CXCR4-antagonizing activity (SDF-1 induced calcium mobilization); type: cell-based; details: mouse pre-B cell line 300-19 stably transfected with human CXCR4, read-out: IC50% [nM] ± SD, CXCR4 receptor
T1 construct: expressed in transfected cells; host or cells: mouse pre-B cell line 300-19
From the text: 2.3. Ca^2+-Assay: CXCR4-Antagonizing Activity of the Depsipeptides
Increases in intracellular calcium were monitored using a Flexstation 384 (Molecular Devices, Sunnyvale, Calif.) to assay the depsipeptides for CXCR4 antagonism in a mouse pre-B cell line 300-19 stably transfected with human CXCR4 (E. Oberlin, A. Amara, F. Bachelerie, C. Bessia, J.-L. Virelizier, F. Arenzana-Seisdedos, O. Schwartz, J.-M. Heard, I. Clark-Lewis, D. F. Legler, M. Loetscher, M. Baggiolini, B. Moser, Nature 1996, 382, 833-835; M. Loetscher, T. Geiser, T. O'Reilly, R. Zwalen, M. Baggiolini, B. Moser, J. Biol. Chem. 1994, 269, 232-237; M. D'Apuuo, A. Rolink, M. Loetscher, J. A. Hoxie, I. Clark-Lewis, F. Melchors, M. Baggiolini, B. Moser, Eur. J. Immunol. 1997, 27, 1788-1793). The cells were batch loaded with the Calcium 4 Assay kit (Molecular Devices) in assay buffer (Hanks Balanced salt solution [HBSS], 20 mM HEPES, pH 7.4, 0.1% BSA) for 1 h at room temperature and labeled cells were dispensed into black well assays plates (Costar No. 3603). Calcium mobilization induced by stromal-derived factor-1 (SDF-1) was measured in the Flexstation 384 (excitation: 485 nm; emission: 525 nm) for 90 seconds. Antagonist activity of depsipeptides was determined by spiking the cells with compounds prior to SDF-1 addition. Dose response curves (compound concentration versus % maximum response for SDF-1) were determined for each antagonist and IC50 values were calculated by fitting the data to a four parameter logistic equation using SoftmaxPro 4.8 (Molecular Devices).

in vitro = type: cell-based
Description: The cytotoxicity of the depsipeptides to HELA cells (Acc57) and COS-7 cells (CRL-1651) was determined using the MTT reduction assay (T. Mossman, J. Immunol. Meth. 1983, 65, 55-63; M. V. Berridge, A. S. Tan, Arch. Biochem. Biophys. 1993, 303, 474-482). Briefly, the method was as follows: 7000 HELA cells/well and 4500 COS-7 cells/well were seeded and grown in 96-well microtiter plates for 24 h at 37° C. at 5% CO2. Thereafter, time zero (Tz) was determined by MTT reduction (see below). The supernatant of the remaining wells was discarded, and fresh medium and compounds in serial dilutions (12.5, 25 and 50 μM, triplicates) were pipetted into the wells. After incubation of the cells for 48 h at 37° C. at 5% CO2 the supernatant was discarded again and 100 μL MTT reagent (0.5 mg/mL in RPMI1640 and DMEM, respectively)/well was added. Following incubation at 37° C. for 2 h the media were aspirated and the cells were spiked (100 μL isopropanol/well). The absorbance of the solubilized formazan was measured at 595 nm (OD595peptide). For each concentration averages were calculated from triplicates. The percentage of growth was calculated as follows: (OD595peptide-OD595Tz-OD595Empty well)/(OD595Tz-OD595Empty well)×100%. The GI50 (Growth Inhibition) concentrations were calculated for each depsipeptide by using a trend line function for the concentrations (50, 25, 12.5 and 0 μM), the corresponding percentages and the value 50, (=TREND (C50:C0, %50:%0, 50).

T1 sequence (P61073 whole entry): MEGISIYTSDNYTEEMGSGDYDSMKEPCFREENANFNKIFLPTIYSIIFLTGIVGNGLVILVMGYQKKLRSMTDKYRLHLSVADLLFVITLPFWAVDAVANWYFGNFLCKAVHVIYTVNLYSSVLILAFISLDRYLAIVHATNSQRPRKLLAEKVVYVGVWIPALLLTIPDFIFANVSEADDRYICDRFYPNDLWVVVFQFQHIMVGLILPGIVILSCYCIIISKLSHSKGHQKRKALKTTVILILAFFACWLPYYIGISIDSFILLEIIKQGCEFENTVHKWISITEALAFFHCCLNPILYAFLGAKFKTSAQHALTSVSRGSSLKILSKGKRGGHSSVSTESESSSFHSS

| SMILES | Hemolysis at 100 μM [1] [%] | Plasmastability mouse pl. T1/2 [2] [h] | Plasmastability human pl. T1/2 [3] [h] | IC50 (human CXCR4) [nM] | GI50 at 48 h (in vitro; African green monkey) [nM] | GI50 at 48 h (in vitro; human) [nM] | half-life at 10 μM [2] [h] | half-life at 10 μM [3] [h] |
| --- | --- | --- | --- | --- | --- | --- | --- | --- |
| C[C@@H]1NC(=O)[C@H](Cc2c[nH]cn2)NC(=O)[C@H](Cc2ccc(O)cc2)NC(=O)[C@@H]2CCCN2C(=O)[C@H]2CCCN2C(=O)[C@H](CCCCN)NC(=O)[C@H](CCC(N)=O)NC(=O)[C@H](Cc2ccc(O)cc2)NC(=O)[C@@H]2CSSC[C@H](NC1=O)C(=O)N[C@@H](CO)C(=O)N[C@@H](C)C(=O)N1CCC[C@@H]1C(=O)O[C@@H](CCN)C(=O)N[C@@H](CCCNC(=N)N)C(=O)N[C@@H](Cc1ccc(O)cc1)C(=O)N2 [Example 2] | 0.7 | > 4 | > 4 | 0.7 ± 0.7 | > 50000 | > 50000 |  |  |
| C[C@@H]1NC(=O)[C@H](CCCNC(=N)N)NC(=O)[C@@H]2CSSC[C@H](NC(=O)[C@H](Cc3ccc(O)cc3)NC(=O)[C@H](CCCNC(=N)N)NC(=O)[C@H]([C@H](C)N)NC(=O)[C@H]3CCCN3C1=O)C(=O)N[C@@H](Cc1ccc(O)cc1)C(=O)N[C@@H](CCC(N)=O)C(=O)N[C@@H](CCCCN)C(=O)N1CCC[C@@H]1C(=O)N1CCC[C@H]1C(=O)N[C@@H](Cc1ccc(O)cc1)C(=O)N[C@@H](Cc1c[nH]cn1)C(=O)O[C@@H](C)C(=O)N2 [Example 9] (cyclo(YH[Lac]CRA[dP][Abu(3S-NH2)]RYCYQK[dP]P); disulfide 4-11) | 0.4 |  |  | 20.8 ± 8.3 | > 50000 | > 50000 | 1.23 | 1.42 |
| C[C@@H]1NC(=O)[C@H](Cc2c[nH]cn2)NC(=O)[C@H](Cc2ccc(O)cc2)NC(=O)[C@@H]2CCCN2C(=O)[C@H]2CCCN2C(=O)[C@H](CCCCN)NC(=O)[C@H](CCC(N)=O)NC(=O)[C@H](Cc2ccc(O)cc2)NC(=O)[C@@H]2CSSC[C@H](NC1=O)C(=O)N[C@H](CO)C(=O)O[C@@H](C)C(=O)N1CCC[C@@H]1C(=O)N[C@@H]([C@H](C)N)C(=O)N[C@@H](CCCNC(=N)N)C(=O)N[C@@H](Cc1ccc(O)cc1)C(=O)N2 [Example 7] (cyclo(YHAC[dS][Lac][dP][Abu(3S-NH2)]RYCYQK[dP]P); disulfide 4-11) | 0.2 |  |  | 2.1 ± 0.5 | > 50000 | > 50000 | 0.85 | 1.03 |
| C[C@@H]1NC(=O)[C@H](Cc2c[nH]cn2)NC(=O)[C@H](Cc2ccc(O)cc2)OC(=O)[C@@H]2CCCN2C(=O)[C@H]2CCCN2C(=O)[C@H](CCCCN)NC(=O)[C@H](CCC(N)=O)NC(=O)[C@H](Cc2ccc(O)cc2)NC(=O)[C@@H]2CSSC[C@H](NC1=O)C(=O)N[C@@H](CO)C(=O)N[C@@H](C)C(=O)N1CCC[C@@H]1C(=O)N[C@@H]([C@H](C)N)C(=O)N[C@@H](CCCNC(=N)N)C(=O)N[C@@H](Cc1ccc(O)cc1)C(=O)N2 [Example 5] (cyclo([Hpla]HACSA[dP][Abu(3S-NH2)]RYCYQK[dP]P); disulfide 4-11) | 1.5 | > 4 | > 4 | 3.3 ± 1.1 | > 50000 | > 50000 |  |  |
| C[C@@H]1NC(=O)[C@H](Cc2c[nH]cn2)NC(=O)[C@H](Cc2ccc(O)cc2)NC(=O)[C@@H]2CCCN2C(=O)[C@H]2CCCN2C(=O)[C@H](CCCCN)NC(=O)[C@H](CCC(N)=O)NC(=O)[C@H](Cc2ccc(O)cc2)OC(=O)[C@@H]2CSSC[C@H](NC1=O)C(=O)N[C@@H](CO)C(=O)N[C@@H](C)C(=O)N1CCC[C@@H]1C(=O)N[C@@H]([C@H](C)N)C(=O)N[C@@H](CCCNC(=N)N)C(=O)N[C@@H](Cc1ccc(O)cc1)C(=O)N2 [Example 3] (cyclo(YHACSA[dP][Abu(3S-NH2)]RYC[Hpla]QK[dP]P); disulfide 4-11) | 0.4 |  |  | 2.7 ± 1.4 | > 50000 | > 50000 | 2.27 | 1.35 |
| C[C@@H]1NC(=O)[C@H](Cc2c[nH]cn2)NC(=O)[C@H](Cc2ccc(O)cc2)NC(=O)[C@@H]2CCCN2C(=O)[C@H]2CCCN2C(=O)[C@H](CCCCN)NC(=O)[C@H](CCC(N)=O)NC(=O)[C@H](Cc2ccc(O)cc2)NC(=O)[C@@H]2CSSC[C@H](NC1=O)C(=O)N[C@@H](CO)C(=O)O[C@@H](C)C(=O)N1CCC[C@@H]1C(=O)N[C@@H]([C@H](C)N)C(=O)N[C@@H](CCCNC(=N)N)C(=O)N[C@@H](Cc1ccc(O)cc1)C(=O)N2 [Example 1] (cyclo(YHACS[Lac][dP][Abu(3S-NH2)]RYCYQK[dP]P); disulfide 4-11) | 0.2 |  |  | 0.8 ± 0.5 | 12000 | 2000 | 1.22 | 1.32 |
| C[C@@H]1NC(=O)[C@H](Cc2c[nH]cn2)NC(=O)[C@H](Cc2ccc(O)cc2)NC(=O)[C@@H]2CCCN2C(=O)[C@H]2CCCN2C(=O)[C@H](CCCCN)NC(=O)[C@H](Cc2ccc(O)cc2)OC(=O)[C@H](Cc2ccc(O)cc2)NC(=O)[C@@H]2CSSC[C@H](NC1=O)C(=O)N[C@@H](CO)C(=O)N[C@@H](C)C(=O)N1CCC[C@@H]1C(=O)N[C@@H]([C@H](C)N)C(=O)N[C@@H](CCCNC(=N)N)C(=O)N[C@@H](Cc1ccc(O)cc1)C(=O)N2 [Example 4] (cyclo(YHACSA[dP][Abu(3S-NH2)]RYCY[Hpla]K[dP]P); disulfide 4-11) | 1.0 | > 4 | > 4 | 4.4 ± 1.6 | > 50000 | > 50000 |  |  |
| C[C@@H]1NC(=O)[C@H](Cc2c[nH]cn2)NC(=O)[C@H](Cc2ccc(O)cc2)NC(=O)[C@@H]2CCCN2C(=O)[C@H]2CCCN2C(=O)[C@H](CCN)OC(=O)[C@H](CCC(N)=O)NC(=O)[C@H](Cc2ccc(O)cc2)NC(=O)[C@@H]2CSSC[C@H](NC1=O)C(=O)N[C@@H](CCCNC(=N)N)C(=O)N[C@@H](C)C(=O)N1CCC[C@@H]1C(=O)N[C@@H]([C@H](C)N)C(=O)N[C@@H](CCCNC(=N)N)C(=O)N[C@@H](Cc1ccc(O)cc1)C(=O)N2 [Example 8] (cyclo(YHACRA[dP][Abu(3S-NH2)]RYCYQ[X1][dP]P); disulfide 4-11) | 0.4 |  |  | 82.4 ± 12.8 | > 50000 | > 50000 |  |  |
